Measurements published in paper PMC11527646, “Pharmacological blockade of the mast cell MRGPRX2 receptor supports investigation of its relevance in skin disorders” (Frontiers in Immunology, 2024).

Tests used:
Assay in all cases: GPCR selectivity cellular assay
Assay type in all cases: cell-based
H3 receptor (HRH3) = biological target: T1, H3 receptor (HRH3) (Homo sapiens, UniProt Q9Y5N1); conditions: Antagonism; read-out: Antagonist Activity (IC50)
T1 construct: expressed in transfected cells

D2 receptor (DRD2) = biological target: T2, D2 receptor (DRD2) (Homo sapiens, UniProt P14416)
T2 construct: expressed in transfected cells
T2 sequence (P14416 whole entry): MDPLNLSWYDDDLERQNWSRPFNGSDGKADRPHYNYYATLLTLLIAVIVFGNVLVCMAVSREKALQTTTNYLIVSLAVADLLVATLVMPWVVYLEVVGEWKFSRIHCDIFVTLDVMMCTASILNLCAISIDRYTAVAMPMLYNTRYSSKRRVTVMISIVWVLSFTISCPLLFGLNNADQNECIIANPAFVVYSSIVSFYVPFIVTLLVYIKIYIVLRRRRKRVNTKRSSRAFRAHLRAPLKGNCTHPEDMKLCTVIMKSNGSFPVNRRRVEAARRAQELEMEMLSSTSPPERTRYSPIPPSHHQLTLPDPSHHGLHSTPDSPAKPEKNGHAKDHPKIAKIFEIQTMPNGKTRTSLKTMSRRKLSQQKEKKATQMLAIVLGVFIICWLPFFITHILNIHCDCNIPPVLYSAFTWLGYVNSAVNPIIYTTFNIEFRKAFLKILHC

[1] = biological target: T3, a2C-Adrenoreceptor (ADRA2C) (Homo sapiens, UniProt P18825); conditions: Agonism; read-out: Agonist Activity (EC50)
T3 construct: expressed in transfected cells
T3 sequence (P18825 whole entry): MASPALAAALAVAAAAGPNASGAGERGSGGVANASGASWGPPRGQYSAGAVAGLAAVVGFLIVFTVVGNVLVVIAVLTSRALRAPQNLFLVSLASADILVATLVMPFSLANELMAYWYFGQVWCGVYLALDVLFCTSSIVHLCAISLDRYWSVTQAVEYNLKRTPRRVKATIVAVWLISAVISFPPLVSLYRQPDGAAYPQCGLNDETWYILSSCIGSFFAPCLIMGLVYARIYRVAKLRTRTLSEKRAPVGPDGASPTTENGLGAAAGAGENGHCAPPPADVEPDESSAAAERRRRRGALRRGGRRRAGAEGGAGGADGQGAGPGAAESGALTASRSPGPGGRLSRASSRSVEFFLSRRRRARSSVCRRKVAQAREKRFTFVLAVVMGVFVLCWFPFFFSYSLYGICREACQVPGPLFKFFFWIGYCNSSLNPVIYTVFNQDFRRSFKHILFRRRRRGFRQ

µ-Receptor (OPRM1) = µ-Receptor (OPRM1) (Homo sapiens, UniProt P35372); conditions: Agonism; read-out: Agonist Activity (EC50)
Chain of µ-Receptor (OPRM1) (P35372 whole entry): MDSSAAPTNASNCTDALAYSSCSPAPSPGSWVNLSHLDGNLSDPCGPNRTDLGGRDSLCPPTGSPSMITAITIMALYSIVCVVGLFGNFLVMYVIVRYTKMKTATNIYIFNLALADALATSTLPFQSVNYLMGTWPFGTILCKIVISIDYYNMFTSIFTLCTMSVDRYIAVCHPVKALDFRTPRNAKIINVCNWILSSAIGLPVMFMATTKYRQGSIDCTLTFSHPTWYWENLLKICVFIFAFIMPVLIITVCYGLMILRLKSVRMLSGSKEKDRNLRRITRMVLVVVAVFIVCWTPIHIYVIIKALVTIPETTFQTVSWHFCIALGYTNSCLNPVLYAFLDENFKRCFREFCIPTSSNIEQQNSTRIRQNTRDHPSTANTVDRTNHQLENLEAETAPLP

T1 sequence (Q9Y5N1 whole entry): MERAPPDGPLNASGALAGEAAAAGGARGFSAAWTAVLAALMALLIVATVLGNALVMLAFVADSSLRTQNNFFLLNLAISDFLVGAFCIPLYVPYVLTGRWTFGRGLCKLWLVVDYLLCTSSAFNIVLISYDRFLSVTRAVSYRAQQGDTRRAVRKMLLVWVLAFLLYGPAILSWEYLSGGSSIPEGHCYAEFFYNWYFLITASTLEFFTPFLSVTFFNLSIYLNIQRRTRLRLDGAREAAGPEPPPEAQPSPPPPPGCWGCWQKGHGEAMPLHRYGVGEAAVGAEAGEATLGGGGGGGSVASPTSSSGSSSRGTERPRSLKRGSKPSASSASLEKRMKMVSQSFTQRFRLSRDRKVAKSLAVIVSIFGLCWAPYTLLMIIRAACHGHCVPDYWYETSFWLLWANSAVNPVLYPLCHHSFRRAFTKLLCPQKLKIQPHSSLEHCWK

C[C@@H](C(=O)Nc1cnc(Oc2ccc(F)cc2F)cn1)N1CCC(F)(F)[C@@H](c2cc[n+]([O-])cc2)C1 [Compound B]
IC50 (H3 receptor (HRH3)): > 50 µM
EC50 (D2 receptor (DRD2); Agonism, read-out: Agonist Activity (EC50)): > 100 µM
IC50 (D2 receptor (DRD2); Antagonism, read-out: Antagonist Activity (IC50)): > 100 µM
EC50 [1]: > 100 µM
EC50 (µ-Receptor (OPRM1)): > 100 µM
